Consider seven molecules from patent publication US8440610B2, “Mapkap kinase-2 as a specific target for blocking proliferation of P53-defective cells” (Massachusetts Institute of Technology, priority 2004, dated 2013).

The subject of one data set is p38 MAPK/MK2 pathway. Description: Immunoblot of p38 MAPK/MK2 activation after DNA-damaging drugs in U2OS cells. The class given is cell-based, human. On the procedure: (§1) 14-3-3 pull-down assays, immunoblotting, and immunofluorescence. U2OS cells were lysed in lysis buffer: 50 mM Tris/HCl, pH7.8, 150 mM NaCl, 1.0% NP-40, 5 mM EDTA, 2 mM DTT, 8 μg/ml pepstatin, 8 μg/ml aprotinin, 8 μg/ml leupeptin, 2 mM Na3VO4, 10 mM NaF, 1 μM microcystin for twenty minutes at 4° C. Clarified lysates (0.5-2 mg protein) were incubated with 20 μL glutathione beads or amylose beads containing 10-20 μg 14-3-3-GST or 14-3-3-MBP, respectively, for 120 minutes at 4° C. Following washing, lysates and bead-bound proteins were analysed by SDS-PAGE, followed by transfer to PVDF membranes and immunoblotted with the indicated antibodies. For immunofluorescence experiments, U2OS cells were seeded onto 18 mm^2 coverslips, irradiated or mock-treated, fixed, extracted, and immunostained as described previously (Clapperton et al., Nat. Struct. Mol. Biol., 11:512-518, 2004).
In general terms: Immunoblotting shows a protein as a band on a membrane.

Data set [1] deals with Cdc25C Ser-216 phosphorylation. As to conditions: Chk1-depleted cells, low doses of UCN-01 (~300 nM); cited from earlier work.
A further data set has as its target Chk2 (Homo sapiens, UniProt O96017). The settings on record: Chk1 versus Chk2; cited from earlier work.
For data set [2], the target named is T1, MAPKAP kinase-2 (Homo sapiens, UniProt P49137). Kind of data set: Phosphorylation of hsp-27 on Ser-82 after heat shock in U2OS cells (immunoblot). The class given is cell-based. The arrangement: endogenous in cells; host or cells: U2OS cells. The settings on record: control luciferase shRNA U2OS cells, 42° C. for two hours, 250 nM UCN-01. On the procedure: as §1
Activation of MK2 by cisplatin, camptothecin, and doxorubicin is strikingly similar to the activation profile reported for Chk1. […] U2OS cells depleted of Chk1 using siRNA were exposed to cisplatin and doxorubicin, and analyzed for activation of MK2. […] The IC50 value we measured for Chk1 is in good agreement with previously published data. […]

A further data set deals with U2OS cells. Description: FACS cell cycle analysis (PI, phospho-histone H3) in U2OS cells. The class given is cell-based, human. The settings on record: untreated U2OS cells blocked in mitosis with nocodazole (100 nM, eighteen hours). As for the experimental part: Asynchronous MAPKAP kinase-2 or luciferase shRNA knockdown cells were mock treated or exposed to doxorubicin for thirty hours, and cell cycle progression was monitored by FACS. In one set of experiments, the spindle poison nocodazole was added to the media three hours after addition of doxorubicin, to cause any cells progressing through the cell cycle to arrest in mitosis. DNA content was monitored by PI staining; phospho-histone-H3 staining was used as an indicator of mitotic entry. As shown in the left panels of FIG. 14A, treatment of control luciferase shRNA knockdown cells with doxorubicin led to the accumulation of cells with 4N DNA content, and a lack of phospho-histone-H3 staining in either the absence or presence of nocodazole. The cells expressing the luciferase shRNAs behaved identically to the untransfected doxorubicin-treated control U2OS cell population (FIG. 24B), with the prominent 4N DNA component and the absence of phospho-histone-H3 staining indicative of an intact G2/M checkpoint.
In contrast to the G2/M checkpoint response observed in doxorubicin-treated cells, treatment with the DNA intra-strand cross-linker cisplatin caused U2OS cells to predominantly accumulate in the G1 and S phases of the cell cycle over the subsequent thirty hours (FIG. 24C). RNA interference was used to investigate the role of MAPKAP kinase-2 in this process. […] Strikingly, when nocodazole was added three hours following cisplatin addition, the MAPKAP kinase-2 depleted cells accumulated in a 4N DNA containing peak with ˜42% of the cells staining strongly for phospho-histone H3. Identical results were obtained in cells treated with a second unrelated siRNA sequence against MAPKAP kinase-2.
FACS analysis. UV irradiation was performed at 254 nm (UV-C) using a Stratalinker 2400 (Stratagene). U2OS cells were fixed in 70% ethanol overnight at −20° C., permeabilized with PBS containing 0.2% Triton X-100 for twenty minutes at 4° C., blocked with 2% FBS in PBS, and incubated with 1 μg of anti-phospho-histone H3 per 10^6 cells for sixty minutes on ice. […]

Data set [3] relates to mouse embryonic fibroblasts (MEFs). Kind of data set: Colony survival assay in p53 wild-type and p53−/− MEFs. As to conditions: MEFs that lacked p53; not seen in p53 wild-type MEFs. Type of data set: cell-based. As for the experimental part: FIGS. 29A-29B are graphs showing the results of a colony survival assay in which mouse embryonic fibroblasts (MEFs) were treated with increasing doses of doxorubicin or cisplatin for eight hours, rinsed twice with PBS and once with media, and re-plated at an initial density of 5,000 cells/10 cm^2 dish. After eleven days, the number of colonies on the plate was counted and normalized to the number of colonies formed by the same cell type in the absence of treatment with chemotherapeutic drugs. RNA interference using short hairpin RNAs was used with both the p53 wild-type MEFs and the p53^−/− MEFs to knock down the levels of MAPKAP kinase-2 (MK2 shRNA). Short hairpin RNAs against luciferase (luciferase shRNA) were used as a control. […] FIG. 29C is a series of Western blots using the indicated antibodies. These blots verify that p53 polypeptide, and the known p53-responsive gene product p21, is induced by DNA damage only in the p53 wild-type cells (lanes 2, 3, 5, and 6), but not in the p53^−/− cells (lanes 7-12). […]
The p53 tumor suppressor protein plays an important role in the cellular response to DNA damage by transcriptionally upregulating the Cdk inhibitor p21 to induce a G1 and G2 arrest. […] Cells were infected with lentiviruses delivering shRNAs against luciferase (control) or MK2 and analyzed 6 days later (FIG. 29C). […] Only minimal amounts of the p53 inducer protein p19ARF were detected. […]

The target of data set [4] is T1, MAPKAP kinase-2. Description: Kinetics of in vitro phosphorylation of MK2tides by MAPKAP kinase-2. Type of data set: biochemical. The arrangement: purchased Upstate. The settings on record: peptide as substrate of MAPKAP kinase-2. An excerpt: To verify the peptide library screening results, individual peptides (MK2tides) containing the optimal MAPKAP kinase-2 consensus motif LQRQLSI (SEQ ID NO: 16), or mutant versions with Ala substituted at each position in the motif, were synthesized and used for kinetic analysis (FIGS. 3B and 3C). […] The rank order of importance of key residues is Arg-3>Leu-5≈Ile+1>[…]. The optimal MK2tide had neither the lowest Km nor the highest Vmax, but rather had the highest Vmax/Km ratio, consistent with the fact that the peptide library screening approach selects substrates on the basis of optimal Vmax/Km, rather than low Km or high Vmax alone. […]
(§2) The sequences of the p38 optimal peptide and the p47phox peptide were KKAZGPQGPQSPIE (SEQ ID NO: 22) and KKAZGPQSPGSPLE (SEQ ID NO: 23), respectively. For 14-3-3 pulldowns of Cdc25B following in vitro phosphorylation by p38 or MAPKAP kinase-2, 2.0 μg of Cdc25B was incubated with 10-fold excess 14-3-3-MBP and analyzed by autoradiography. […] Samples were analyzed by SDS-PAGE followed by transfer to nitrocellulose for autoradiography and immunoblotting. The rate of p38α phosphorylation of isolated peptides and full-length p47phox proteins was determined by scintillation counting using peptide concentrations of 100, 400, and 1400 μM, and protein concentrations of 1, 5, 10 and 15 μM, with time points taken at five, ten, and twenty minutes. […]

The target of the next data set is p38α SAPK (Homo sapiens, UniProt Q16539). Kind of data set: Kinetics of in vitro substrate phosphorylation by p38α SAPK. The class given is biochemical. The settings on record: GST-tagged full-length protein as substrate.
Description: Wild-type and mutant versions of GST-tagged full-length p47phox protein, rather than isolated peptides, were then used as substrates for in vitro phosphorylation reactions. The wild-type full-length p47phox protein was rapidly phosphorylated by p38α SAPK (FIGS. 1C and 1D). […] Simultaneous mutation of both Ser345 and Ser348 to Ala eliminated phosphorylation of p47phox by p38 SAPK altogether.
as §2, with “autoradiography. For kinetic measurements, the reactions were terminated by the addition of an equal volume of 0.5 percent phosphoric acid, and 5 μl was spotted onto p81 paper.” for “autoradiography.”

Sequence of p38α SAPK (Q16539 whole entry): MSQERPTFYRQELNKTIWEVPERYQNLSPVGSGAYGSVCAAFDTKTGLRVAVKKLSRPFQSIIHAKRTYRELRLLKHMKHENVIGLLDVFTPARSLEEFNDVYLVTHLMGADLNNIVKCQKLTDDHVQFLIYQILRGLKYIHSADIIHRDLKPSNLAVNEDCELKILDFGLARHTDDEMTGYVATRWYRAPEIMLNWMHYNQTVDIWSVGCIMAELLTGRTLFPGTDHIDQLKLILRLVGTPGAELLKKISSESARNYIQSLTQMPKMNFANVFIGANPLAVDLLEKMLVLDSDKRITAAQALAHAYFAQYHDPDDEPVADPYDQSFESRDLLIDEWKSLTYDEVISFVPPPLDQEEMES
T1 sequence (P49137 whole entry): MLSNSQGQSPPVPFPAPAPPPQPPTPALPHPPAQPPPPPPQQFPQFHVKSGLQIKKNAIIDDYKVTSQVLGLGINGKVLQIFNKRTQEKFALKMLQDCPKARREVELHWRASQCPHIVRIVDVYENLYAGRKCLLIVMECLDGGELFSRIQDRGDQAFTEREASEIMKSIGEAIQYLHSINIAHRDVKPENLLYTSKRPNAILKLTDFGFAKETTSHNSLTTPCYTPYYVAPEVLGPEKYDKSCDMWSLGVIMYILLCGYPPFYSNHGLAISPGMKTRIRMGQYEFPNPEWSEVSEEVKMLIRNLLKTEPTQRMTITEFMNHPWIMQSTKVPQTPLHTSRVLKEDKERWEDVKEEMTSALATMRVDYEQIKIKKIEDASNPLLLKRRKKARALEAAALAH
Sequence of Chk2 (O96017 whole entry, species assumed): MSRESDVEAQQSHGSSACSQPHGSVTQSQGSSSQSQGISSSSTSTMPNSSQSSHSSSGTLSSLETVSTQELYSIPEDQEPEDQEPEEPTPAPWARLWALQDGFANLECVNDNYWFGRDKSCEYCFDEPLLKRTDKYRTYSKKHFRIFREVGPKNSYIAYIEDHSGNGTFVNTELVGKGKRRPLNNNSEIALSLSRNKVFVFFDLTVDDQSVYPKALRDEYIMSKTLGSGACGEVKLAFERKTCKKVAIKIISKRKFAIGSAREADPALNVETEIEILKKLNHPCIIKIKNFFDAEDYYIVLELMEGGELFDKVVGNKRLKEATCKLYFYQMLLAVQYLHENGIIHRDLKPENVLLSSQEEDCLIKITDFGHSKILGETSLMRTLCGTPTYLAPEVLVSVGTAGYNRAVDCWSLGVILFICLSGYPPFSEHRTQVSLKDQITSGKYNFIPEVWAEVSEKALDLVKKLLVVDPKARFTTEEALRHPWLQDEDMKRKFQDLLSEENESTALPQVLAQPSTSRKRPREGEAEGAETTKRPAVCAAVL

Turning to `C[S+]([O-])c1ccc(-c2nc(-c3ccncc3)c(-c3ccc(F)cc3)[nH]2)cc1` (stereo not shown) [SB203580], the “MK2 activation by DNA damaging agents” value in the data set on p38 MAPK/MK2 pathway is “completely abolished MK2 activation”.
For the molecule `CN[C@@H]1C[C@H]2O[C@@](C)([C@@H]1OC)n1c3ccccc3c3c4c(c5c6ccccc6n2c5c31)C(=O)N[C@H]4O` [UCN-01, 7-hydroxystaurosporin], the “phosphorylation of Cdc25C on Ser-216” value in data set [1] is given as “lost”. Further, the “IC50 for Chk1 lower than that for Chk2” value on Chk2 is given as approximately 1000 fold. Also, at MAPKAP kinase-2 [2], the “phosphorylation of hsp-27 on Ser-82” value is “completely abrogated”.
As for `CC[C@@]1(O)C(=O)OCc2c1cc1n(c2=O)Cc2cc3ccccc3nc2-1` [camptothecin], the “time to MK2 activation (reduction in electrophoretic mobility, pThr-344)” value in the data set on p38 MAPK/MK2 pathway (U2OS cells, 10 μM drug) is “within four hour”.
Take `COC(=O)Nc1nc2ccc(C(=O)c3cccs3)cc2[nH]1` [nocodazole]: the “cells staining for phospho-histone H3” value in the data set with U2OS cells was 42%.
For “MK2 shRNA: lentivirally delivered short hairpin RNA against murine MAPKAP kinase-2 (SEQ ID NO: 26) (TCGATGCGTGTTGACTATGATTCAAGAGATCATAGTCAACACGCATCGTTTTTTC)”, in data set [3], the “sensitivity to doxorubicin and cisplatin (colony survival)” value is reported as “increased sensitivity”.
“MK2tide: peptide containing the optimal MAPKAP kinase-2 consensus motif LQRQLSI (SEQ ID NO: 16)”: the “Km value relative to the best MAPKAP kinase-2 peptide substrate known to date (HSP27-derived sequence)” value with MAPKAP kinase-2 [4] is recorded as “two-fold lower”.

B1: wild-type p47phox: GST-tagged full-length p47phox protein, cytosolic component of NADPH oxidase, used as p38 SAPK substrate (protein)
chain: MGDTFIRHIALLGFEKRFVPSQHYVYMFLVKWQDLSEKVVYRRFTEIYEFHKTLKEMFPIEAGAINPENRIIPHLPAPKWFDGQRAAENRQGTLTEYCSTLMSLPTKISRCPHLLDFFKVRPDDLKLPTDNQTKKPETYLMPKDGKSTATDITGPIILQTYRAIANYEKTSGSEMALSTGDVVEVVEKSESGWWFCQMKAKRGWIPASFLEPLDSPDETEDPEPNYAGEPYVAIKAYTAVEGDEVSLLEGEAVEVIHKLLDGWWVIRKDDVTGYFPSMYLQKSGQDVSQAQRQIKRGAPPRRSSIRNAHSIHQRSRKRLSQDAYRRNSVRFLQQRRRQARPGPQSPGSPLEEERQTQRSKPQPAVPPRPSADLILNRCSESTKRKLASAV
modifications: left off: a dimerising Fc or GST
notes: GST-tagged full-length p47phox protein, cytosolic component of NADPH oxidase, used as p38 SAPK substrate
In the case of B1, in the data set with p38α SAPK, the “Vmax for p38 SAPK phosphorylation” value came out at 36.6 nmol/min/µg. Moreover, in the data set with p38α SAPK (read-out: Km for p38 SAPK phosphorylation), the Km is 6 µM.

By Km is commonly meant the substrate concentration at which the rate is half of its maximum.
